Laboratory results published in US20090233372A1, “COMPOSITIONS, KITS AND METHODS FOR DETERMINING ETIOLOGY OF TRALI AND DETECTING PATIENTS AT RISK FOR THIS TRANSFUSION REACTION” (Bonfils Blood Center, priority 2008, published 2009).

Columns and labels:
Type in all cases: cell-based
neutrophil oxidase = experiment: Priming of the neutrophil oxidase / fMLP stimulated respiratory burst by biologically active compounds; settings: added directly to the assay
Text: The priming activity of plasma specimens from various sources including patient samples and blood components has been described herein. The effects on priming by various dilutions may correlate with the concentration of biologically active compounds in the specimens. Many of these compounds are well characterized and their priming activities determined. […] Each has its own concentration dependent effects. […] Similar effects are seen with complement fragments (e.g., C5a), other biologically active lipids (e.g., leukotrienes), and other compounds (e.g., sCD40L). Antibodies to neutrophil antigens (e.g., HNA-3a) also can prime the oxidase enzyme system. All these agents may be detected in plasma from blood components implicated in TRALI or plasma from patients sustaining a TRALI reaction. All may be added directly to the assay and priming activity detected as described in other sections.

[1] = tested on: peripheral blood neutrophils; experiment: Priming assay using fluorescent probe (DHR) for hydrogen peroxide, flow cytometry
Protocol: Hydrogen peroxide (H2O2) is another reactive oxygen species produced by neutrophils when the NADPH oxidase and associated respiratory burst are activated. H2O2 can be detected intracellularly by incubating cells with dihydrorhodamine (DHR). This non-fluorescent compound will be oxidized to rhodamine, a potent fluorophore, when H2O2 is generated by activated neutrophils. This assay can be used to detect enhancement of the fMLP stimulated respiratory burst. […] Isolated peripheral blood neutrophils are incubated with 50 μM DHR. After exposure to fMLP (1 μM) or PAF (1 μM) for 3 minutes and fMLP (1 μM), the cells are placed on ice and samples analyzed with the evaluation of 10,000 events on a BD Canto flow cytometer. […] When PAF is used to prime the fMLP response, the result is a marked increase in H2O2 production expressed as MCF (˜250 MCF units).
This assay has been further optimized for the following reagents: DHR, 50 μM with the best loading time of 1 minute. Optional concentration of fMLP is 1 μM and PAF 1 μM. The assay should be analyzed in a flow cytometer as soon as possible but may be delayed up to 4 hours after completion without jeopardizing the results. Finally, plasma itself quenches the fluorescence. As a result the priming assay on this platform requires exposure of the cells to buffer or test sample for priming (PAF, plasma, etc), a low speed centrifugation to pellet cells, resuspension of cells in DHR containing buffer, then stimulation with fMLP. Determination of MCF is by analysis of 20,000 events. FIG. 6 summarizes results, expressed as mean ±SEM, with this assay in four separate experiments. Resting cells with buffer present very low levels of H2O2 with an increase when resting cells are stimulated with fMLP. Plasma from Day 0 and 7 stored platelet concentrates has little effect in the absence of fMLP.

neutrophils = experiment: Detection of priming by chemiluminescence (Diogenes probe); settings: priming sample, then fMLP; FIG. 7 and FIG. 8
Protocol: A third assay makes use of energy from chemiluminescence to determine oxygen radical generation from activated neutrophils. In this reaction, neutrophils are incubated with the priming sample or buffer, then exposed to fMLP after addition of the chemiluminescent probe, Diogenes, and the energy released determined in a chemiluminescence reader. The optimal cell concentration is between 2.5×10^6 cells/ml and 5×10^6 cells/ml. The chemiluminescence is >90% SOD inhibitable and so detects superoxide anion. The optimal addition of diogene is 20 μl to provide specific determination of oxygen radicals released by the neutrophils respiratory burst. […] Buffer alone is included for control. […] As with fluorescence platform, plasma nonspecifically quenches the chemiluminescence. This can be circumvented with an extra wash step to remove plasma after incubating cells with the priming stimulus. The resultant assay is sensitive to the effect in stored blood products. […] The priming effect for PAF is presented for comparison. The results are expressed as mean ±SEM. This platform, using chemiluminescence, can be used to determine priming by biologic samples.

cytoplasts = experiment: Cytoplast priming assay, superoxide anion measured as cytochrome c reduction; settings: PAF 1 μM, fMLP 1 μM
Protocol: Cytoplasts are neutrophils which have been sedimented on a 20% Ficoll gradient at 77,000×g. Cytoplasts, are devoid of nucleus, granules and other subcellular organelles. Cytoplasts retain the ability for random and directed migration, phagocytosis of opsonized particles as well as activation of a respiratory burst and generation of reactive oxygen species. They can be frozen at −70° C. and thawed; the thawed cytoplasts can be used as targets for priming activity. The advantage is that cytoplasts would be readily available for assaying priming activity of biologic specimens (FIG. 1B, 113) in place of freshly isolated neutrophils from a healthy donor.

Substance: IL-8: cytokine/chemokine found in biologically active plasma samples
- priming of the fMLP stimulated respiratory burst (neutrophil oxidase): concentration dependent priming

Substance: TNF-alpha
- priming of the fMLP stimulated respiratory burst (neutrophil oxidase): concentration dependent priming

Substance: fMLP
- mean channel fluorescence (H2O2 production) ([1]; fMLP 1 μM by itself, 50 μM DHR, FIG. 5): 45

Substance: platelet activating factor [PAF]
- priming of the fMLP stimulated chemiluminescence (RLUs) (neutrophils): higher level of relative light units (RLUs) as well as a more prolonged time course at maximal production
- H2O2 production expressed as MCF ([1]; PAF 1 μM for 3 minutes, then fMLP 1 μM, 50 μM DHR, FIG. 5): ~250 MCF units
- priming of the fMLP stimulated respiratory burst (H2O2, MCF) ([1]; priming sample, then fMLP, four separate experiments, FIG. 6): markedly enhanced
- enhancement of the fMLP stimulated respiratory burst by priming (cytoplasts): 1.6 to 2.0 fold
